The target of the assay is T1, HasAp (Pseudomonas aeruginosa, UniProt O69756, H32A).
T1 sequence (O69756 1-184 H32A): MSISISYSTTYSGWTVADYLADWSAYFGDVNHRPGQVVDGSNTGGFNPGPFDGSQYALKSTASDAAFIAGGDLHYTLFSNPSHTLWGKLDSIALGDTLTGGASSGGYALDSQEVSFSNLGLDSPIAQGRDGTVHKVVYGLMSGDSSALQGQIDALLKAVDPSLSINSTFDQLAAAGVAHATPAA
Briefly: UV-vis titration. Format: binding.

The structures appear in SMILES notation.

For the compound `c1c[nH]cn1` [imidazole], the affinity, expressed as Kd, was 4.7 mM.
